Legend:
Rattus norvegicus [1] = assay: % decrease in adrenal epinephrine in anesthetized spontaneously hypertensive rats(SHR) at 24 hours after administration of 150 mg/kg dose perorally; assay type: functional; details: route oral
Rattus norvegicus [2] = assay: % decrease in heart norepinephrine in anesthetized spontaneously hypertensive rats(SHR) at 24 hours after administration of 150 mg/kg dose perorally; assay type: functional; details: route oral
Rattus norvegicus [3] = assay: % decrease in systolic blood pressure (SBP) in anesthetized spontaneously hypertensive rats(SHR) after administration of 150 mg/kg dose perorally; details: route oral
Rattus norvegicus [4] = assay: % decrease in brain norepinephrine in anesthetized spontaneously hypertensive rats(SHR) at 24 hours after administration of 150 mg/kg dose perorally; details: route oral
Rattus norvegicus [5] = assay: % decrease in heart norepinephrine in anesthetized spontaneously hypertensive rats(SHR) at 5 hours after administration of 150 mg/kg dose perorally; assay type: functional; details: route oral
Rattus norvegicus [6] = assay: % decrease in heart norepinephrine in anesthetized spontaneously hypertensive rats(SHR) at 5 hours after administration of 35 mg/kg dose perorally; assay type: functional; details: route oral
Rattus norvegicus [7] = assay: % decrease in heart norepinephrine in anesthetized spontaneously hypertensive rats(SHR) at 5 hours after administration of 75 mg/kg dose perorally; assay type: functional; details: route oral
Rattus norvegicus [8] = assay: % decrease in heart 5-HT in anesthetized spontaneously hypertensive rats(SHR) at 5 hours after administration of 75 mg/kg dose perorally; *value significantly different was control.; assay type: functional; details: route oral
Rattus norvegicus [9] = assay: % decrease in heart 5-HT in anesthetized spontaneously hypertensive rats(SHR) at 5 hours after administration of 150 mg/kg dose perorally; assay type: functional; details: route oral
Rattus norvegicus [10] = assay: % decrease in hypothalamus dopamine in anesthetized spontaneously hypertensive rats(SHR) at 5 hours after administration of 35 mg/kg dose perorally; assay type: functional; details: route oral
Rattus norvegicus [11] = assay: % decrease in hypothalamus dopamine in anesthetized spontaneously hypertensive rats(SHR) at 5 hours after administration of 75 mg/kg dose perorally; assay type: functional; details: route oral
Rattus norvegicus [12] = assay: % decrease in hypothalamus norepinephrine in anesthetized spontaneously hypertensive rats(SHR) at 5 hours after administration of 35 mg/kg dose perorally; assay type: functional; details: route oral
Rattus norvegicus [13] = assay: % decrease in hypothalamus norepinephrine in anesthetized spontaneously hypertensive rats(SHR) at 5 hours after administration of 75 mg/kg dose perorally; assay type: functional; details: route oral
Rattus norvegicus [14] = assay: % decrease in heart 5-HT in anesthetized spontaneously hypertensive rats(SHR) at 5 hours after administration of 35 mg/kg dose perorally; assay type: functional; details: route oral
Rattus norvegicus [15] = assay: % decrease in hypothalamus norepinephrine in anesthetized spontaneously hypertensive rats(SHR) at 5 hours after administration of 150 mg/kg dose perorally; assay type: functional; details: route oral
Rattus norvegicus [16] = assay: % decrease in hypothalamus DA in anesthetized spontaneously hypertensive rats(SHR) at 5 hours after administration of 150 mg/kg dose perorally; details: route oral
Rattus norvegicus [17] = assay: Systolic blood pressure (SBP) in anesthetized spontaneously hypertensive rats(SHR) at 7.5 hours after administration of 75 mg/kg dose perorally; NS is not statistically significant
Rattus norvegicus [18] = assay: Systolic blood pressure (SBP) in anesthetized spontaneously hypertensive rats(SHR) at 7.5 hours after administration of 17 mg/kg dose, perorally; assay type: functional; details: route oral
Rattus norvegicus [19] = assay: Systolic blood pressure (SBP) in anesthetized spontaneously hypertensive rats(SHR) at 7.5 hours after administration of 35 mg/kg dose perorally; assay type: functional; details: route oral
Rattus norvegicus [20] = assay: % decrease in heart 5-HT in anesthetized spontaneously hypertensive rats(SHR) at 5 hours after administration of 35 mg/kg dose perorally; value significantly different was control; assay type: functional; details: route oral
Rattus norvegicus [21] = assay: % decrease in heart 5-HT in anesthetized spontaneously hypertensive rats(SHR) at 5 hours after administration of 4 mg/kg dose perorally; assay type: functional; details: route oral
Rattus norvegicus [22] = assay: % decrease in heart 5-HT in anesthetized spontaneously hypertensive rats(SHR) at 5 hours after administration of 75 mg/kg dose perorally; value significantly different was control; assay type: functional; details: route oral
Rattus norvegicus [23] = assay: % decrease in heart 5-HT in anesthetized spontaneously hypertensive rats(SHR) at 5 hours after administration of 8 mg/kg dose perorally; assay type: functional; details: route oral
Rattus norvegicus [24] = assay: % decrease in hypothalamus dopamine in anesthetized spontaneously hypertensive rats(SHR) at 5 hours after administration of 17.5 mg/kg dose perorally; assay type: functional; details: route oral
Rattus norvegicus [25] = assay: % decrease in hypothalamus dopamine in anesthetized spontaneously hypertensive rats(SHR) at 5 hours after administration of 4 mg/kg dose perorally; assay type: functional; details: route oral
Rattus norvegicus [26] = assay: % decrease in hypothalamus dopamine in anesthetized spontaneously hypertensive rats(SHR) at 5 hours after administration of 8 mg/kg dose perorally; assay type: functional; details: route oral
Rattus norvegicus [27] = assay: Systolic blood pressure (SBP) in anesthetized spontaneously hypertensive rats(SHR) before administration of 17 mg/kg dose, perorally; assay type: functional; details: route oral
Rattus norvegicus [28] = assay: (§1) Systolic blood pressure (SBP) in anesthetized spontaneously hypertensive rats(SHR) before administration of 35 mg/kg dose perorally; assay type: functional; details: route oral
Rattus norvegicus [29] = assay: % decrease in heart norepinephrine in anesthetized spontaneously hypertensive rats(SHR) at 5 hours after administration of 17.5 mg/kg dose perorally; assay type: functional; details: route oral
Rattus norvegicus [30] = assay: % decrease in heart norepinephrine in anesthetized spontaneously hypertensive rats(SHR) at 5 hours after administration of 4 mg/kg dose perorally; assay type: functional; details: route oral
Rattus norvegicus [31] = assay: % decrease in heart norepinephrine in anesthetized spontaneously hypertensive rats(SHR) at 5 hours after administration of 8 mg/kg dose perorally; assay type: functional; details: route oral
Rattus norvegicus [32] = assay: % decrease in hypothalamus norepinephrine in anesthetized spontaneously hypertensive rats(SHR) at 5 hours after administration of 17.5 mg/kg dose perorally; assay type: functional; details: route oral
Rattus norvegicus [33] = assay: Systolic blood pressure (SBP) in anesthetized spontaneously hypertensive rats (SHR) before administration of 75 mg/kg dose perorally.; assay type: functional; set-up: unit: mmHg; details: route oral
Rattus norvegicus [34] = assay: % decrease in hypothalamus norepinephrine in anesthetized spontaneously hypertensive rats(SHR) at 5 hours after administration of 4 mg/kg dose perorally; assay type: functional; details: route oral
Rattus norvegicus [35] = assay: % decrease in hypothalamus norepinephrine in anesthetized spontaneously hypertensive rats(SHR) at 5 hours after administration of 8 mg/kg dose perorally; assay type: functional; details: route oral
Rattus norvegicus [36] = assay: % decrease in heart 5-HT in anesthetized spontaneously hypertensive rats(SHR) at 5 hours after administration of 17.5 mg/kg dose perorally; value significantly different was control; assay type: functional; details: route oral
Adrenergic receptor beta [37] = biological target: T1, Adrenergic receptor beta (Rattus norvegicus, UniProt P18090+P10608+P26255)
Description: Inhibition constant from beta adrenergic receptor binding assay

Rattus norvegicus [38] = assay: % decrease in hypothalamus DA in anesthetized spontaneously hypertensive rats(SHR) at 5 hours after administration of 35 mg/kg dose perorally; details: route oral
Rattus norvegicus [39] = assay: Systolic blood pressure (SBP) in anesthetized spontaneously hypertensive rats(SHR) at 7.5 hours after administration of 75 mg/kg dose perorally; details: route oral
Rattus norvegicus [40] = assay: % decrease in systolic blood pressure (SBP) in anesthetized spontaneously hypertensive rats(SHR) after administration of 8 mg/kg dose perorally; details: route oral
Rattus norvegicus [41] = assay: % decrease in systolic blood pressure (SBP) in anesthetized spontaneously hypertensive rats(SHR) after administration of 4 mg/kg dose perorally; details: route oral
Rattus norvegicus [42] = assay: % decrease in systolic blood pressure (SBP) in anesthetized spontaneously hypertensive rats(SHR) after administration of 75 mg/kg dose perorally; details: route oral
Rattus norvegicus [43] = assay: % decrease in systolic blood pressure (SBP) in anesthetized spontaneously hypertensive rats(SHR) after administration of 17.5 mg/kg dose perorally; data statistically significant; details: route oral
Rattus norvegicus [44] = assay: Systolic blood pressure (SBP) in anesthetized spontaneously hypertensive rats(SHR) before administration of 65 mg/kg dose perorally; assay type: functional; details: route oral
Rattus norvegicus [45] = assay: Systolic blood pressure (SBP) in anesthetized spontaneously hypertensive rats(SHR) at 7.5 hours after administration of 65 mg/kg dose perorally; NS is not statistically significant.
Rattus norvegicus [46] = assay: % decrease in heart 5-HT in anesthetized spontaneously hypertensive rats(SHR) at 5 hours after administration of 75 mg/kg dose perorally; assay type: functional; details: route oral
Rattus norvegicus [47] = assay: Systolic blood pressure (SBP) in anesthetized spontaneously hypertensive rats(SHR) at 7.5 hours after administration of 75 mg/kg dose perorally; NS is not statistically significant.
Rattus norvegicus [48] = assay: % decrease in hypothalamus DA in anesthetized spontaneously hypertensive rats(SHR) at 5 hours after administration of 75 mg/kg dose perorally; *value significantly different was control.; details: route oral
Adrenergic receptor beta [49] = biological target: T1, Adrenergic receptor beta; assay: Inhibition constant obtained from beta adrenergic receptor binding assay; assay type: protein assay
Rattus norvegicus [50] = assay: as §1; assay type: functional; set-up: unit not given here; details: route oral

## CC(C)NCC(O)COc1ccc2c(=O)c(-c3ccccc3)coc2c1 (stereo unspecified)
Rattus norvegicus [1]
  Decrease: 100%
Rattus norvegicus [2]
  Decrease: 100%
Rattus norvegicus [3]
  % decrease SBP: 34%
Rattus norvegicus [4]
  Decrease: 37%

## COc1c(-c2ccccc2)oc2cc(OCC(O)CNC(C)C)ccc2c1=O (stereo unspecified)
Rattus norvegicus [5]
  Decrease: 70%
Rattus norvegicus [6]
  Decrease: 55%
Rattus norvegicus [7]
  Decrease: 61%
Rattus norvegicus [8]
  Decrease: 29%
Rattus norvegicus [9]
  Decrease: 37%
Rattus norvegicus [10]
  Decrease: 29%
Rattus norvegicus [11]
  Decrease: 26%
Rattus norvegicus [12]
  Decrease: 12%
Rattus norvegicus [13]
  Decrease: 16%
Rattus norvegicus [14]
  Decrease: 7%
Rattus norvegicus [15]
  Decrease: 28%
Rattus norvegicus [16]
  % decrease hypothalamus DA: 37%
Rattus norvegicus [3]
  % decrease SBP: 16%
Rattus norvegicus [17]
  Decrease in Systolic blood pressure: Not significant

## CCCNCC(O)COc1ccc2c(=O)cc(-c3ccccc3)oc2c1 (stereo unspecified) [FLAVODILOL]
Rattus norvegicus [6]
  Decrease in heart norepinephrine: 89%
Rattus norvegicus [7]
  Decrease in heart norepinephrine: 94%
Rattus norvegicus [18]
  Decrease in Systolic blood pressure: 15%
Rattus norvegicus [19]
  Decrease in Systolic blood pressure: 27%
Rattus norvegicus [11]
  Decrease: 38%
Rattus norvegicus [12]
  Decrease in hypothalamus norepinephrine: 19%
Rattus norvegicus [13]
  Decrease in hypothalamus norepinephrine: 15%
Rattus norvegicus [20]
  Decrease: 61%
Rattus norvegicus [21]
  Decrease: -10%
Rattus norvegicus [22]
  Decrease: 63%
Rattus norvegicus [23]
  Decrease: 11%
Rattus norvegicus [24]
  Decrease: 31%
Rattus norvegicus [25]
  Decrease: 4%
Rattus norvegicus [26]
  Decrease: -6%
Rattus norvegicus [27]
  Systolic blood pressure: 199
Rattus norvegicus [28]
  Systolic blood pressure: 196
Rattus norvegicus [29]
  Decrease in heart norepinephrine: 79%
Rattus norvegicus [30]
  Decrease in heart norepinephrine: 21%
Rattus norvegicus [31]
  Decrease in heart norepinephrine: 38%
Rattus norvegicus [32]
  Decrease in hypothalamus norepinephrine: 6%
Rattus norvegicus [33]
  Systolic blood pressure: 203
Rattus norvegicus [34]
  Decrease in hypothalamus norepinephrine: 2%
Rattus norvegicus [35]
  Decrease in hypothalamus norepinephrine: 0%
Rattus norvegicus [36]
  Decrease: 49%
Adrenergic receptor beta [37]
  Ki: 0.004 µM
Rattus norvegicus [38]
  % decrease hypothalamus DA: 37%
Rattus norvegicus [39]
  Decrease in Systolic blood pressure: 32%
Rattus norvegicus [40]
  % decrease SBP: 3%
Rattus norvegicus [41]
  % decrease SBP: 7%
Rattus norvegicus [42]
  % decrease SBP: 31%
Rattus norvegicus [43]
  % decrease SBP: 6%

## CC(C)NCC(O)COc1ccc2c(=O)cc(-c3ccc(N)cc3)oc2c1 (stereo unspecified)
Rattus norvegicus [44]
  Systolic blood pressure: 206
Rattus norvegicus [45]
  Decrease in Systolic blood pressure: Not significant

## CN(C)CC(O)COc1ccc2c(=O)cc(-c3ccccc3)oc2c1 (stereo unspecified)
Rattus norvegicus [5]
  Decrease: 7%
Rattus norvegicus [7]
  Decrease: 18%
Rattus norvegicus [9]
  Decrease: 0%
Rattus norvegicus [46]
  Decrease: 0%
Rattus norvegicus [13]
  Decrease: 20%
Rattus norvegicus [33]
  Systolic blood pressure: 207
Rattus norvegicus [15]
  Decrease: 37%
Rattus norvegicus [16]
  % decrease hypothalamus DA: 47%
Rattus norvegicus [42]
  % decrease SBP: 0%
Rattus norvegicus [3]
  % decrease SBP: 5%
Rattus norvegicus [47]
  Decrease in Systolic blood pressure: Not significant
Rattus norvegicus [48]
  % decrease hypothalamus DA: 29%

## O=c1cc(-c2ccccc2)oc2cc(OCC(O)CNC3CCCCC3)ccc12 (stereo unspecified)
Adrenergic receptor beta [49]
  Ki: 5.5 µM
Rattus norvegicus [19]
  Decrease in Systolic blood pressure: 20%
Rattus norvegicus [50]
  Systolic blood pressure: 201

— ChEMBL document CHEMBL1124625, “Flavones. 2. Synthesis and structure-activity relationship of flavodilol and its analogues, a novel class of antihypertensive agents with catecholamine depleting properties” (J Med Chem, 1989)
